Laboratory results published in PubChem BioAssay (NCI).
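Grown in 96-well plates, cells were treated for 48 hours with each compound at five concentrations. Insufficient inhibition: endpoint recorded as highest concentration tested. GI50 is the concentration that inhibits growth by half. TGI: total growth inhibition.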

Experiments:
Experiment in all cases: growth of human tumour cells (NCI), 48 h
[1] = test system: SK-MEL-28 melanoma
[2] = test system: MCF7 breast
[3] = test system: UO-31 renal
[4] = test system: NCI-H522 lung
[5] = test system: HOP-92 NSCLC
[6] = test system: OVCAR-5 ovarian
[7] = test system: UACC-62 melanoma
[8] = test system: SK-OV-3 ovarian
[9] = test system: CAKI-1 renal
[10] = test system: COLO 205 colon

`COc1cc(/C=C2\CN(S(=O)(=O)c3ccc(C)cc3)C/C(=C\c3cc(CN4CCCCC4)c(O)c(OC)c3)C2=O)cc(CN2CCCCC2)c1O` gave a GI50 [1] of 1.61 µM, a TGI [1] of 3.13 µM and a GI50 [2] of 0.375 µM. It also gave a TGI [2] of 2.39 µM, a GI50 [3] of 1.6 µM and a TGI [3] of 3.03 µM. It also gave a GI50 [4] of 0.306 µM, a TGI [4] of 1.32 µM and a GI50 [5] of 1.55 µM. It also gave a TGI [5] of 3.19 µM, a GI50 [6] of 1.88 µM and a TGI [6] of 3.4 µM. For the same compound, the GI50 [7] was 1.63 µM, the TGI [7] was 3.32 µM and the GI50 [8] was 1.91 µM. For the same compound, the TGI [8] was 3.6 µM, the GI50 [9] was 1.73 µM and the TGI [9] was 3.27 µM. It also gave a GI50 [10] of 1.68 µM and a TGI [10] of 3.58 µM.
`NC(Cc1c[nH]c2ccccc12)C(=O)O` (stereo not given) was tested, and the TGI [1] was greater than 300 µM, the TGI [2] was greater than 300 µM and the TGI [3] was greater than 300 µM. For the same compound, the TGI [4] was greater than 300 µM, the TGI [5] was greater than 300 µM and the TGI [6] was greater than 300 µM. It also gave a TGI [7] greater than 300 µM, a TGI [8] greater than 300 µM and a TGI [9] greater than 300 µM. For the same compound, the TGI [10] was greater than 300 µM.
